Measurements as given in US20100316991A1, “HUMAN PARAINFLUENZA VIRUS TYPE 3 EXPRESSING THE ENHANCED GREEN FLUORESCENT PROTEIN FOR USE IN HIGH-THROUGHPUT ANTIVIRAL ASSAYS” (priority 2009, published 2010).
In brackets after ≈: the same amount, converted by molar mass.

What was measured:
rHPIV3-EGFP [1] = assay: 3-Day EGFP fluorescent antiviral assay; assay type: cell-based, human parainfluenza type 3 virus; details: for EC50: MA104, 72 h
Method: (§1) Six 96-well plates were seeded with MA-104 cells to evaluate the NR and EGFP assays in parallel. A format was used allowing seven compounds to be tested per plate. Each compound was plated using four 10-fold dilutions in triplicate and starting the concentration at 1000 μg/mL for ribavirin (positive control), and ribamidine; 100 μg/mL for 2-thio-6-azauridine, 3-deazaguanosine, 1-(4-methoxybenzyloxy) adenosine, selenazofurin, and EICAR; 100 μM for CS-978, CS-1164, CS-1196, CS-1227, PSI-0194, PSI-5067, PSI-5095, PSI-5098, PSI-5452, PSI-5449, PSI-5741, PSI-5746, PSI-5747, PSI-5852, and PSI-5990; and 1 μg/mL for DAS181. Compounds that were reconstituted in DMSO were diluted down to working concentrations of 0.5% DMSO and less to eliminate cell toxicity due to the DMSO. Two of the replicates were infected with 3.9×10^3 PFU of rHPIV3-EGFP, at an MOI=0.1, while the remaining replicate served as a toxicity control with no virus added. Three of the plates were incubated at 37° C. for 3 days, after which, the toxicity and cell control cells were stained with NR following the same procedure described earlier. NR fluorescence was measured with the FMax® fluorometer, using the 544 nm excitation and 612 nm emission filters. The untreated virus control and treated, infected cells were washed with PBS, fresh PBS was added, and the fluorescence was measured with the FMax® fluorometer, using the 485 nm excitation and 538 nm emission filters. The other three plates were assayed using the traditional colorimetric NR assay. After incubation for 7 days at 37° C., the cells were stained with NR following the same procedure described earlier. For the NR assay, EC50 and 50% cell inhibitory concentrations (IC50) were calculated by linear regression from percents of untreated, uninfected cell and untreated, infected virus controls. For the EGFP assay, EC50 values were calculated by linear regression using percents of untreated, infected virus controls and IC50 values were also calculated by linear regression using percents of untreated, uninfected cell control. The EC50 and IC50 values for each compound for both assays were compared and statistically analyzed by unpaired, two-tailed Student's t-test. A selectivity index (SI) was calculated for each compound for each assay using the formula: SI=Mean IC50/Mean EC50. Compounds were sorted into positive, SI≧10, and negative, SI<10, categories for the combination of NR and EGFP assays. Using the NR assay as the gold standard, sensitivity, true positives/(true positives+false negatives), and specificity, true negatives/(true negatives+false positives), were calculated.

rHPIV3-EGFP [2] = assay: 7-Day colorimetric neutral red uptake antiviral assay; assay type: cell-based, human parainfluenza type 3 virus; details: for SI: 7-Day colorimetric neutral red uptake assay, SI = Mean IC50/Mean EC50; for EC50: Homo sapiens, MA104, 168 h
Method: (§2) Ninety-six-well plates were seeded with MA-104 cells and infected with 3.9×10^3 PFU of either the HPIV-3 WT or rHPIV3-EGFP virus in duplicate at an MOI=0.1 in quadruplicate wells. The plates were incubated at 37° C. and on each day, including the day of infection, the cells were stained with 0.034% neutral red for 2 hours at 37° C., washed once with PBS, and the NR extracted with ethanol:Sörenson's citrate buffer for 30 min while rocking at room temperature. Absorbance, at 540 and 405 nm wavelengths, was read with an Opsys MR™ spectrophotometer and Revelation Quicklink software, version 4.24 (both from Dynex Technologies, Chantilly, Va.). The two curves was compared and statistically analyzed by ANOVA.
as §1

MA-104 cells [3] = assay: 3-Day EGFP assay, toxicity control (no virus, NR fluorescence); assay type: cell-based, African green monkey; details: Chlorocebus sabaeus, MA104, 72 h, 3-Day EGFP fluorescent assay, uninfected MA-104 cells, read-out: IC50 (50% cell inhibitory concentration)
Method: as §1

MA-104 cells [4] = assay: 7-Day colorimetric neutral red uptake assay, toxicity control (no virus); assay type: cell-based, African green monkey; details: Chlorocebus sabaeus, MA104, 168 h, uninfected MA-104 cells, mean of three assays ± SD, read-out: IC50 (50% cell inhibitory concentration)
Method: as §2, §1

HPIV-3 WT = assay: Antiviral sensitivity CPE assay (neutral red), HPIV-3 WT; assay type: cell-based, human parainfluenza type 3 virus; details: Human respirovirus 3, MA104, 168 h, MA-104 cells, MOI=0.1, 7 days, NR, mean ± SD of three replicates
Method: as §2
(§3) An antiviral CPE assay was used to evaluate the antiviral sensitivity profiles of the HPIV-3 WT and rHPIV3-EGFP viruses. Briefly, three compounds: ribavirin (positive control), 2-thio-6-azauridine, and DAS181, were plated in four 10-fold dilutions in five replicates on 96-well plates seeded with MA-104 cells using starting concentrations of 1000, 100, and 1 μg/mL, respectively. […] Fifty percent effective concentrations (EC50) were calculated by linear regression using percents of untreated, uninfected cell and untreated, infected virus controls. EC50 values were compared and statistically analyzed by the unpaired, two-tailed Student's t-test.

rHPIV3-EGFP [5] = assay: Antiviral sensitivity CPE assay (neutral red), rHPIV3-EGFP; assay type: cell-based, human parainfluenza type 3 virus; details: MA104, 168 h
Method: as §2, §3

COc1ccc(COn2cnc3c(ncn3[C@@H]3O[C@H](CO)[C@@H](O)[C@H]3O)c2=N)cc1 [1-(4-methoxybenzyloxy) adenosine]
EC50 (rHPIV3-EGFP [1]): > 41 µg/mL | SI (rHPIV3-EGFP [1]): 0 | SI (rHPIV3-EGFP [2]): 0 | EC50 (rHPIV3-EGFP [2]): > 31 µg/mL | IC50 (MA-104 cells [3]): 41 ± 2.5 µg/mL | IC50 (MA-104 cells [4]): 31 ± 1.2 µg/mL

O=c1cnn([C@@H]2O[C@H](CO)[C@@H](O)[C@H]2O)c(=S)[nH]1 [2-Thio-6-azauridine, 2-[(2R,3R,4S,5R)-3,4-Dihydroxy-5-(hydroxymethyl)oxolan-2-yl]-3-sulfanylidene-1,2,4-triazin-5-one]
EC50 (HPIV-3 WT): 1.1 ± 0.058 µg/mL (≈ 4.21 µM) | EC50 (rHPIV3-EGFP [5]): 0.63 ± 0.075 µg/mL (≈ 2.41 µM) | EC50 (rHPIV3-EGFP [1]): 0.89 ± 0.13 µg/mL | SI (rHPIV3-EGFP [1]): >110 | SI (rHPIV3-EGFP [2]): 28 | EC50 (rHPIV3-EGFP [2]): 0.6 ± 0.095 µg/mL | IC50 (MA-104 cells [3]): > 100 µg/mL | IC50 (MA-104 cells [4]): 17 ± 3.5 µg/mL

Nc1cc2c(ncn2[C@@H]2O[C@H](CO)[C@@H](O)[C@H]2O)c(=O)[nH]1 [3-Deazaguanosine, 6-amino-1-[(2R,3R,4S,5R)-3,4-dihydroxy-5-(hydroxymethyl)oxolan-2-yl]-5H-imidazo[4,5-c]pyridin-4-one]
EC50 (rHPIV3-EGFP [1]): 21 µg/mL | SI (rHPIV3-EGFP [1]): >5 | SI (rHPIV3-EGFP [2]): <1 | EC50 (rHPIV3-EGFP [2]): > 31 µg/mL | IC50 (MA-104 cells [3]): > 100 µg/mL | IC50 (MA-104 cells [4]): 34 ± 3.5 µg/mL

C#Cc1c(C(N)=O)ncn1[C@@H]1O[C@H](CO)[C@@H](O)[C@H]1O [EICAR, 1-[(2R,3R,4S,5R)-3,4-dihydroxy-5-(hydroxymethyl)oxolan-2-yl]-5-ethynylimidazole-4-carboxamide]
EC50 (rHPIV3-EGFP [1]): 0.35 µg/mL | SI (rHPIV3-EGFP [1]): >280 | SI (rHPIV3-EGFP [2]): >120 | EC50 (rHPIV3-EGFP [2]): 0.81 ± 0.061 µg/mL | IC50 (MA-104 cells [3]): > 100 µg/mL | IC50 (MA-104 cells [4]): > 100 µg/mL

N=C(N)c1ncn([C@@H]2O[C@H](CO)[C@@H](O)[C@H]2O)n1 [Ribamidine, 1-[(2R,3R,4S,5R)-3,4-dihydroxy-5-(hydroxymethyl)oxolan-2-yl]-1,2,4-triazole-3-carboximidamide]
EC50 (rHPIV3-EGFP [1]): 68 ± 2.6 µg/mL | SI (rHPIV3-EGFP [1]): >15 | activity category by SI in the EGFP assay (rHPIV3-EGFP [1]): moderately active (between 10 and 49 moderately active) | SI (rHPIV3-EGFP [2]): 7 | EC50 (rHPIV3-EGFP [2]): 57 ± 15 µg/mL | IC50 (MA-104 cells [3]): > 1000 µg/mL | IC50 (MA-104 cells [4]): 390 ± 20 µg/mL

NC(=O)c1ncn([C@@H]2O[C@H](CO)[C@@H](O)[C@H]2O)n1 [Ribavirin, 1-[(2R,3R,4S,5R)-3,4-dihydroxy-5-(hydroxymethyl)oxolan-2-yl]-1,2,4-triazole-3-carboxamide]
EC50 (HPIV-3 WT): 35 ± 2.5 µg/mL (≈ 143 µM) | EC50 (rHPIV3-EGFP [5]): 19 ± 4.9 µg/mL (≈ 77.8 µM) | EC50 (rHPIV3-EGFP [1]): 31 µg/mL | SI (rHPIV3-EGFP [1]): >32 | SI (rHPIV3-EGFP [2]): 12 | EC50 (rHPIV3-EGFP [2]): 20 ± 3.6 µg/mL | IC50 (MA-104 cells [3]): > 1000 µg/mL | IC50 (MA-104 cells [4]): 230 ± 92 µg/mL

NC(=O)c1c[se]c([C@@H]2O[C@H](CO)[C@@H](O)[C@H]2O)n1 [Selenazofurin, 2-[(2R,3R,4S,5R)-3,4-dihydroxy-5-(hydroxymethyl)oxolan-2-yl]-1,3-selenazole-4-carboxamide]
EC50 (rHPIV3-EGFP [1]): 3.5 ± 0.1 µg/mL | SI (rHPIV3-EGFP [1]): >29 | activity category by SI in the EGFP assay (rHPIV3-EGFP [1]): moderately active (between 10 and 49 moderately active) | SI (rHPIV3-EGFP [2]): 7 | EC50 (rHPIV3-EGFP [2]): 4.9 ± 1.4 µg/mL | IC50 (MA-104 cells [3]): > 100 µg/mL | IC50 (MA-104 cells [4]): 34 ± 7.2 µg/mL
